Here are results for five compounds from EP0101441B1, “ANTI-VIRAL COMPOSITIONS” (SYNTEX (U.S.A.) INC., priority 1982, dated 1983).

The test system of data set [1] is HSV-1-PATTON. The data set can be described thus: Viral plaque titration in human fetal fibroblasts (HFF). Format: cell-based, Herpes simplex virus. To be noted: Example 1, drug µg/ml: G* 1.2, BVDU 0.11, ACG 2.0, PAA 250, same in combinations; for VT (virus titre): HFF cells, no-drug control VT 147; for FTR (fold titre reduction): ratio of control virus titre to that of the test. As for the experimental part: (§1) Human fetal fibroblasts (HFF) derived from fetal tissues were used in this study. Cells were grown and maintained in Basal Medium Eagle (BME) supplemented with 0.112% sodium bicarbonate, 2 mML- glutamine, 2 mg% Neomycin and 20% (vol/vol) calf serum.
(§2) A viral plaque titration method (Roizman and Roane, 1961) was used to determine the titer of the HSV strain. Tissue culture dishes (35 by 10 mm, Corning) were seeded with cells and used for assays when they were approximately 75% monolayer. Volumes (0.2 ml) of logarithmic dilutions of the virus strain were inoculated onto each of two tissue culture dishes and adsorbed for 1 hr with intermittent shaking, the inoculum was removed and 2 ml of 20% BME containing 0.5% human immune serum globulin was added. After a 48 h incubation period at 36°C in a 5% C02 atmosphere, the overlay m'edium was removed, and the cell sheets were stained with a 0.05% aqueous crystal violet solution. The plaque numbers were counted with the aid of a Nikon profile projector which magnified the dishes 10x. Duplicate results were averaged, and the number of plaque-forming units (PFU) was calculated. The virus titre is thus expressed as a number of plaque forming units to be seen after growth under these conditions.
(§3) In order to make comparisons between the activities of the various drugs and combinations, experiments were conducted by plaque titration to determine for each drug its viral ED-50 (i.e. the concentration thereof which inhibits HSV plaque formation by 50% in the HFF cells, as compared with cell cultures in the absence of the drug). For this purpose, tissue culture dishes (35 by 10 mm) with HFF cell monolayers at 75% confluence were inoculated with approximately 50 plaque-forming units of virus per 0.2 ml, and the virus was allowed to adsorb for 1 hr with intermittent shaking. After removal of the inoculum, 2 ml of 20% BME with 0.5% immune globulin and threefold dilutions of the appropriate drug were added to duplicate dishes. One set of dishes received no drug and was later used for the "no-drug control". After a 48 h incubation period at 36°C in a 5% C02 atmosphere, the overlay medium was removed, the cells were stained as described above, and plaques were counted. After averaging the counts of duplicate plates, the fraction of plaques emerging in the presence of each drug dilution was calculated as a percent of the control. Each drug titration was plotted on semilogarithmic graph paper, with the number of plaques per dish as the vertical axis and the drug concentration as the horizontal axis. The viral ED50 was calculated as that amount of drug per ml of overlay medium that inhibited plaque numbers by 50%, compared to a control (no drug), and this was read off the graphic plot of the data.
(§4) Three combinations of the drugs were then tested for activity by viral plaque titration, at concentrations which were multiples of the ED50 of the individual drugs. When G^*, BVDU or ACG was present, a concentration ten times that of its ED50 was used in the combination. This was intended to ensure a concentration sufficiently high to limit the numbers of partially drug-resistant virus plaques to a small fraction, in respect of each drug of the combination. In respect of PAA, a concentration of five times the ED50 was used, to avoid cell toxicity problems. The drugs were individually plaque-titrated at the same concentrations, for comparison purposes.
(§5) The results are given in the first Table headed "HSV-1-PATTON". The column headed "VT" gives the virus titre, expressed in plaque-forming units (PFU) per ml, x10^5; of course, the lower the figure, the greater the inhibitory, anti-viral effect of the tested drug (D). The column headed "FTR" gives the fold titre reduction which is the ratio of virus titre for the control, i.e. no drug, to that of the given test. […]

For the next data set, the system named is HSV-2-EL4. The description is as above. Format: cell-based, Herpes simplex virus. To be noted: for VT (virus titre): HFF cells, no-drug control VT 750; for FTR (fold titre reduction): ratio of control virus titre to that of the test.
Another data set relates to HSV-2-EL6. The data set is described as above. Format: cell-based, Herpes simplex virus. Particulars: for VT (virus titre): HFF cells; for FTR (fold titre reduction): ratio of control virus titre to that of the test.
Data set [2] concerns HSV-1-PATTON. The data set is described as above. To be noted: Example 2, drug µg/ml: G* 0.7, PFA 80, combination 0.7+80; for VT (virus titre): HFF cells, no-drug control VT 3400; for FTR (fold titre reduction): ratio of control virus titre to that of the test. Format: cell-based, Herpes simplex virus.
The conditions of data set [3]: cited from earlier work.
The subject of a further data set is HSV-1-227. The data set can be described thus: Viral plaque titration in human fetal fibroblasts (HFF). To be noted: Example 3, drug µg/ml: G* 2.0, PAA 80, combination 2.0+80; for VT (virus titre): HFF cells, no-drug control VT 28; for FTR (fold titre reduction): ratio of control virus titre to that of the test. Format: cell-based, Herpes simplex virus. As for the experimental part:
as §1, §2, §3, §4, §5

The subject of the next data set is HSV-2-EL1. The data set is described as above. To be noted: Example 3, drug µg/ml: G* 2.0, PAA 76, combination 2.0+76; for VT (virus titre): HFF cells, no-drug control VT 170; for FTR (fold titre reduction): ratio of control virus titre to that of the test. Format: cell-based, Herpes simplex virus.
The next data set relates to HSV-2-EL3. The description is as above. Format: cell-based, Herpes simplex virus. To be noted: Example 3, drug µg/ml: G* 2.0, PAA 82, combination 2.0+82; for VT (virus titre): HFF cells, no-drug control VT 77; for FTR (fold titre reduction): ratio of control virus titre to that of the test.
Another data set has as its system HSV-1-EL11. The data set is described as above. Format: cell-based, Herpes simplex virus. Particulars: Example 3, drug µg/ml: G* 0.4, PAA 25, combination 0.4+25; for VT (virus titre): HFF cells, no-drug control VT 8.0; for FTR (fold titre reduction): ratio of control virus titre to that of the test.
Where [4] appears, read: Example 2, drug µg/ml: G* 3.0, PFA 80, combination 3.0+80.
[5] abbreviates: Example 2, no-drug control VT 150, drug µg/ml: G* 0.7, PFA 80, combination 0.7+80.
The mark [6] stands for this setting: Example 2, drug µg/ml: G* 0.7, PFA 80, combination 0.7+80.
Setting [7] is: Example 3, drug µg/ml: G* 2.0, PAA 90, combination 2.0+90.
Setting [8] is: Example 3, no-drug control VT 180, drug µg/ml: G* 0.6, PAA 90, combination 0.6+90.
Where [9] appears, read: Example 3, drug µg/ml: G* 0.6, PAA 90, combination 0.6+90.

Each structure is given as a SMILES string.

With `O=c1[nH]c(=O)n([C@H]2C[C@H](O)[C@@H](CO)O2)cc1/C=C/Br` [BVDU, bromovinyl-deoxyuridine], in the data set with HSV-1-PATTON [1], the “VT (virus titre)” value is 2.1 PFU per ml, x10^5 and the “FTR (fold titre reduction)” value is given as 70.

Turning to `O=C(O)P(=O)(O)O` [PFA, phosphonoformic acid], the “VT (virus titre)” value is reported as 0.28 PFU per ml, x10^5 in the data set with HSV-2-EL4 (setting [4]); 48 PFU per ml, x10^5 in the data set on HSV-2-EL6 (setting [5]); 750 PFU per ml, x10^5 in the data set with HSV-1-PATTON [2]. Also, the “FTR (fold titre reduction)” value is 2,700 in the data set with HSV-2-EL4 (setting [4]), 3.1 in the data set on HSV-2-EL6 (setting [6]) and 4.5 in the data set with HSV-1-PATTON [2]. Besides, in data set [3] (drug concentrations in excess of 100 mM), the “skin harm of topical formulation” value is on record as “do not appear harmful”.

Turning to `Nc1nc2c(ncn2COC(CO)CO)c(=O)[nH]1` [G*, 9 - [[2 - hydroxy - 1 - (hydroxymethyl)ethoxy]methyl]guanine], the “VT (virus titre)” value in the data set on HSV-1-227 is listed as 0.25 PFU per ml, x10^5; in the data set with HSV-1-PATTON [1], 1.1 PFU per ml, x10^5; in the data set with HSV-2-EL4 (setting [4]) it was 21 PFU per ml, x10^5; in the data set on HSV-2-EL4 (setting [7]), 5.9 PFU per ml, x10^5; in the data set with HSV-2-EL6 (setting [5]), 40 PFU per ml, x10^5; in the data set on HSV-2-EL6 (setting [8]) it was 0.90 PFU per ml, x10^5. In addition, the “VT (virus titre)” value in the data set on HSV-2-EL1 was 8.9 PFU per ml, x10^5; in the data set on HSV-2-EL3 it was 10 PFU per ml, x10^5; in the data set on HSV-1-EL11, 0.37 PFU per ml, x10^5; in the data set on HSV-1-PATTON [2], 140 PFU per ml, x10^5. The “FTR (fold titre reduction)” value came out at 110 in the data set on HSV-1-227; 130 with HSV-1-PATTON [1]; 36 in the data set with HSV-2-EL4 (setting [4]); 130 in the data set on HSV-2-EL4 (setting [7]); 3.8 in the data set on HSV-2-EL6 (setting [6]); 200 with HSV-2-EL6 (setting [9]). Besides, the “FTR (fold titre reduction)” value with HSV-2-EL1 amounted to 19; in the data set with HSV-2-EL3, 7.7; in the data set with HSV-1-EL11 it was 22; in the data set with HSV-1-PATTON [2], 24.

Turning to `Nc1nc2c(ncn2COCCO)c(=O)[nH]1` [ACG, 9 - [2 - hydroxyethoxymethyl]guanine], in the data set on HSV-1-PATTON [1], the “VT (virus titre)” value is 4.7 PFU per ml, x10^5 and the “FTR (fold titre reduction)” value is recorded as 31.

Turning to `O=C(O)CP(=O)(O)O` [PAA, phosphonoacetic acid], the “VT (virus titre)” value in the data set on HSV-1-227 was 1.1 PFU per ml, x10^5; in the data set on HSV-1-PATTON [1], 3.2 PFU per ml, x10^5; with HSV-2-EL4 (setting [7]) it was 0.10 PFU per ml, x10^5; with HSV-2-EL6 (setting [8]), 31.0 PFU per ml, x10^5; with HSV-2-EL1, 0.34 PFU per ml, x10^5; in the data set with HSV-2-EL3, 0.36 PFU per ml, x10^5. Moreover, in the data set on HSV-1-EL11, the “VT (virus titre)” value was 2.8 PFU per ml, x10^5. Moreover, the “FTR (fold titre reduction)” value in the data set on HSV-1-227 is reported as 26; in the data set with HSV-1-PATTON [1] it was 50; with HSV-2-EL4 (setting [7]) it was 7,500; in the data set with HSV-2-EL6 (setting [9]), 5.8; in the data set on HSV-2-EL1, 500; in the data set with HSV-2-EL3, 210. In addition, the “FTR (fold titre reduction)” value with HSV-1-EL11 is recorded as 2.9. Besides, the “drug concentrations in topical formulation reported as skin irritant” value in [3] is more than 100 mM.
